Data on 2 compounds can be found in patent US5631146A, “DNA aptamers and catalysts that bind adenosine or adenosine-5'-phosphates and methods for isolation thereof” (The General Hospital Corporation, priority 1995, dated 1997).

The term Kd denotes a measure of binding affinity in units of concentration.

In assay [1] the test system is adenosine/ATP-binding single-stranded DNA aptamer (minimal ATP aptamer DH25.42, SEQ ID NO:46). In words: ATP analog elution of bound aptamer from ATP-agarose column. Conditions: 3 column volumes of 1.5 mM analog. The method, then: FIG. 9A-C are graphs of exemplary elution profiles with analogs of ATP. DNA was loaded onto an ATP-agarose affinity column and washed with 10 column volumes of wash buffer. Bound DNA was then eluted with 3 column volumes of wash buffer containing 1.5 mM analog, then washed with 2 more column volumes of wash buffer; remaining DNA was then eluted in 3 column volumes of wash buffer containing 1.5 mM ATP. Data point at column volume 19 is that remaining on the column after all washes. Elution profiles with 9A. adenosine, 9B. 3-methyl adenine, and 9C. purine riboside.
FIG. 10 is a schematic diagram showing the specifity of the adenosine/ATP aptamer, as determined by analog elution experiments. ++, 85-100% of DNA eluted in 3 column volumes of 1.5 mM ligand; +, 70-84% of DNA eluted in 3 column volumes of 1.5 mM ligand; +/-, 6%-69% of DNA eluted in 3 column volumes of 1.5 mM ligand; -, <5% of DNA eluted in 3 column volumes of 1.5 mM ligand. The regions most important for binding are highlighted by the shaded boxes. […]
10-500 ng (1.2 pmol-60 pmol) of affinity purified DNA was loaded onto a 1/4 ml bed volume ATP-agarose column pre-equilibrated with column buffer. […] Each fraction was then analyzed by Cerenkov counting. […]

For assay [2], the target named is adenosine/ATP-binding single-stranded DNA aptamer (minimal ATP aptamer DH25.42, SEQ ID NO:46). In words: Kd for adenosine by analytical ultrafiltration. Conditions: room temperature, column buffer (300 mM NaCl, 5 mM MgCl2, 20 mM Tris pH 7.6), 5.49 nM [3H]adenosine, average of two estimates, read-out: Kd for adenosine in solution. The method, then:
Although quantitative binding data from column elution experiments is imprecise, an estimate of adenosine affinity in solution was obtained by ultrafiltration experiments (Jenison et al., Science 263:1425-1429, (1994)).
The Kd for adenosine was measured by analytical ultrafiltration (Jenison et al., Science 263:1425-1429, (1994)). In this technique bound and unbound ligand partition across a membrane in a ultra filtration device. DNA (0.06 μM-30 μM) was incubated for 5 min. at room temperature in 200 μl of column buffer containing 5.49 nM [2,8,5'^3H] adenosine. The reaction mixture was loaded onto an Microcon 10 microconcentrator (Amicon) and spun at 14000 RPM in an Eppendorf 5415 centrifuge for 4 min., resulting in 100 μl of ultrafiltrate. This method could not be used with ATP because only 30% of ATP passed through the filter in 50% of the volume. Even with adenosine, only 40-45% passed through in 50% of the volume. The Kd was estimated from the concentration of DNA calculated to decrease the amount of adenosine passing through the filter by 50%. During the course of the experiment the DNA concentration increases by a factor of two since the DNA is retained above the filter; therefore, using the initial DNA concentration would give an artificially low Kd, and using the final DNA concentration would give an artificially high Kd. The Kd reported is the average of these two estimates. […]

On to `Nc1ncnc2c1ncn2[C@H]1O[C@H](CO)[C@@H](O)[C@H]1O` [9-α-ribofuranosyladenine], for which the “elution of bound aptamer from the ATP-agarose column by analog” value in assay [1] is “did not elute bound aptamer”.
For `Nc1ncnc2c1ncn2[C@@H]1O[C@H](CO)[C@@H](O)[C@H]1O` [adenosine], the dissociation constant Kd in assay [2] was 6 ± 3 µM.
